Reference: ChEMBL document CHEMBL1201862, “PubChem BioAssay data set” (2004)
Active and inactive are the calls of the source.

Columns and labels:
[1] = molecular target: T1, Aminopeptidase N (Plasmodium falciparum FcB1/Columbia, UniProt O96935); assay: P. falciparum M1AAP inhibitors, biochemical, fluorogenic H-Leu-NHMec substrate, 1536-well (AID 1445); parameters: species or system Plasmodium falciparum 3D7, 3D7
T1 sequence (O96935 whole entry): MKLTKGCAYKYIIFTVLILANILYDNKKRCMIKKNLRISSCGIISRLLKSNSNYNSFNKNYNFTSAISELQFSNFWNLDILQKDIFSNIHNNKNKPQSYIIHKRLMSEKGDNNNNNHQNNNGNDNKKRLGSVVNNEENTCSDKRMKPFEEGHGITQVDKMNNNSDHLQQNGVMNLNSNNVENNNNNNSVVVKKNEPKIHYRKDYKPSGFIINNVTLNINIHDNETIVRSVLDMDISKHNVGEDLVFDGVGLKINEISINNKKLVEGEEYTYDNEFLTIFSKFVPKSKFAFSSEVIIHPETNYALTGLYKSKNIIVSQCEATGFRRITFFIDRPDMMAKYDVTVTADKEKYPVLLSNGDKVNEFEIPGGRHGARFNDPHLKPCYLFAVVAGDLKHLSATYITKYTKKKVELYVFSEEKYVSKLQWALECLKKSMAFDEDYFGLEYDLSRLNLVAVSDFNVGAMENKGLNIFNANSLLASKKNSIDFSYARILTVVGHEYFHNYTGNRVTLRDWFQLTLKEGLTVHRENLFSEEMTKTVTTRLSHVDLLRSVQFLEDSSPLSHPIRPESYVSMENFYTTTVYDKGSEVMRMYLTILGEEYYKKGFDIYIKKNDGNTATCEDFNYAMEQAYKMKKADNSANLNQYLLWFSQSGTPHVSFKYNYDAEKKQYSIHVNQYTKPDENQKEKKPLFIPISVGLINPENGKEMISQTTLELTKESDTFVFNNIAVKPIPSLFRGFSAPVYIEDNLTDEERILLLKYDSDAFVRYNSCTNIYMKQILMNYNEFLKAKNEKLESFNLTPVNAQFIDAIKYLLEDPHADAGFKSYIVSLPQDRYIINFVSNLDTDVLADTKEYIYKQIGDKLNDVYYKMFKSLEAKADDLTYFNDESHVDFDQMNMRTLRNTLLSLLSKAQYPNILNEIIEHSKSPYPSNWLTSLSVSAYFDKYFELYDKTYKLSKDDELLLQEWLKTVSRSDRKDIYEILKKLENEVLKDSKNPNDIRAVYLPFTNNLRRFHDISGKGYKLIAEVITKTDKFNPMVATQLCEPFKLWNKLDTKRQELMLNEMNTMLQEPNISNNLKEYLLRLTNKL

[2] = molecular target: DNA (cytosine-5)-methyltransferase 1 (Homo sapiens, UniProt P26358); assay: DNMT1 methyltransferase inhibitors, confirmation, biochemical, fluorescent molecular beacon (AID 602386); type: functional
[3] = molecular target: T2, Histone-lysine N-methyltransferase NSD2 (Homo sapiens, UniProt O96028); type: biochemical
T2 sequence (O96028 whole entry): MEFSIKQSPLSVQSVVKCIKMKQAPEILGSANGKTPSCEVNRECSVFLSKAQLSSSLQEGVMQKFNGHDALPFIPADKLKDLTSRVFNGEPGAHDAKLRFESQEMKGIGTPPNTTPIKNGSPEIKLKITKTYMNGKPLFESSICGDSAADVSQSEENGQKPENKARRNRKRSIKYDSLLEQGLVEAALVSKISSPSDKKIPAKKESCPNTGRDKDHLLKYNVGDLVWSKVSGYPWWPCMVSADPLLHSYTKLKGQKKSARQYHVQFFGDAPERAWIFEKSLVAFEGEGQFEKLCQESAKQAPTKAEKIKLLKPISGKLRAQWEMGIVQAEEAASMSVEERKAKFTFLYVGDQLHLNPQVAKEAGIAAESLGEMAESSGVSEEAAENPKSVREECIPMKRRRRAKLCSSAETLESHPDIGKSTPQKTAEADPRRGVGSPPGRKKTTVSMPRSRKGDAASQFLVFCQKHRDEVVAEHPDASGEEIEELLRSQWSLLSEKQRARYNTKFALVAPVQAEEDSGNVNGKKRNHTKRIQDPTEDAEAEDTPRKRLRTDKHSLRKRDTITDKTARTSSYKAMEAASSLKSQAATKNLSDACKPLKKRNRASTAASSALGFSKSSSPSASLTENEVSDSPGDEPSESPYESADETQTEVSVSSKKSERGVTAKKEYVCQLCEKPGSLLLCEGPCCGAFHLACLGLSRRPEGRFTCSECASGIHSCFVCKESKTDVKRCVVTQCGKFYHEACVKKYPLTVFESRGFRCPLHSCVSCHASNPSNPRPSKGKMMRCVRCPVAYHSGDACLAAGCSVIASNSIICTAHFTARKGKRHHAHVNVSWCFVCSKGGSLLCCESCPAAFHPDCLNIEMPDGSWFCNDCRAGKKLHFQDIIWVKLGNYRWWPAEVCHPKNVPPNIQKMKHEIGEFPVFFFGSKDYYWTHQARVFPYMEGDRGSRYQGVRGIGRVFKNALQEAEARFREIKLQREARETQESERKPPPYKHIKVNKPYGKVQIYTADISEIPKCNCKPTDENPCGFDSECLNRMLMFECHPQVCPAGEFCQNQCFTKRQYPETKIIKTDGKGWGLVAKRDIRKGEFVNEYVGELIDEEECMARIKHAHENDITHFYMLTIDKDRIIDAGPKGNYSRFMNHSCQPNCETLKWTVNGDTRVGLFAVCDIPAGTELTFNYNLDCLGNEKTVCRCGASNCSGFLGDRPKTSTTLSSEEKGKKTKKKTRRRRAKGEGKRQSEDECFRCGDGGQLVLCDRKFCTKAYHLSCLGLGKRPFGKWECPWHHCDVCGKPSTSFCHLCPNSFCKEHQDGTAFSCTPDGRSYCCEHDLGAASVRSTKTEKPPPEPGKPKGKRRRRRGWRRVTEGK

[4] = molecular target: 26S proteasome non-ATPase regulatory subunit 14 (Homo sapiens, UniProt O00487); assay: inhibition of proteasome subunit RPN11 – biochemical, fluorescence polarization, uHTS hits, confirmation (AID 602368); type: functional
Sequence of 26S proteasome non-ATPase regulatory subunit 14 (O00487 whole entry): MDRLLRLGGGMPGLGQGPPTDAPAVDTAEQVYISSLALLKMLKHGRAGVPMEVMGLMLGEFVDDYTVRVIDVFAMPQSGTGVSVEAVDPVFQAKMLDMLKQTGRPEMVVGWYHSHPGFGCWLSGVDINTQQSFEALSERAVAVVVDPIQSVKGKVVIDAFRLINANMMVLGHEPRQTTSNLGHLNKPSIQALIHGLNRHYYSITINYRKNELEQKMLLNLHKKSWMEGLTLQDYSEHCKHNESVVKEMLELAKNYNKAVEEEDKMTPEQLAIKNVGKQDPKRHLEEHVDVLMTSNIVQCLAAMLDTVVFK

[5] = molecular target: Induced myeloid leukemia cell differentiation protein Mcl-1 (Homo sapiens, UniProt Q07820); type: functional
Sequence of Induced myeloid leukemia cell differentiation protein Mcl-1 (Q07820 whole entry): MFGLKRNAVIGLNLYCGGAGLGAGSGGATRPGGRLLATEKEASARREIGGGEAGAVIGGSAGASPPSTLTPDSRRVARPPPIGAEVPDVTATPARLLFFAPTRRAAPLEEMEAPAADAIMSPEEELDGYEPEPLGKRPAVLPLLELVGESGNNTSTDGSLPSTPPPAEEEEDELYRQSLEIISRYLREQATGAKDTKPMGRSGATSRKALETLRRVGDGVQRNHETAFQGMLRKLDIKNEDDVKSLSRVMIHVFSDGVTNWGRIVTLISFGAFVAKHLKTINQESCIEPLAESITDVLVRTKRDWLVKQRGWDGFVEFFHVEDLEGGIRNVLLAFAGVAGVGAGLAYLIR

[6] = molecular target: Prothrombin (Bos taurus, UniProt P00735); assay: thrombin inhibition, dose response, biochemical, fluorescence polarization, uHTS hits (AID 602369); type: functional
[7] = molecular target: 72 kDa type IV collagenase (Homo sapiens, UniProt P08253); assay: Dose Response validation of uHTS RPN11 inhibitor hits using a MMP-2 Fluorescence assay.; type: functional
Sequence of 72 kDa type IV collagenase (P08253 whole entry): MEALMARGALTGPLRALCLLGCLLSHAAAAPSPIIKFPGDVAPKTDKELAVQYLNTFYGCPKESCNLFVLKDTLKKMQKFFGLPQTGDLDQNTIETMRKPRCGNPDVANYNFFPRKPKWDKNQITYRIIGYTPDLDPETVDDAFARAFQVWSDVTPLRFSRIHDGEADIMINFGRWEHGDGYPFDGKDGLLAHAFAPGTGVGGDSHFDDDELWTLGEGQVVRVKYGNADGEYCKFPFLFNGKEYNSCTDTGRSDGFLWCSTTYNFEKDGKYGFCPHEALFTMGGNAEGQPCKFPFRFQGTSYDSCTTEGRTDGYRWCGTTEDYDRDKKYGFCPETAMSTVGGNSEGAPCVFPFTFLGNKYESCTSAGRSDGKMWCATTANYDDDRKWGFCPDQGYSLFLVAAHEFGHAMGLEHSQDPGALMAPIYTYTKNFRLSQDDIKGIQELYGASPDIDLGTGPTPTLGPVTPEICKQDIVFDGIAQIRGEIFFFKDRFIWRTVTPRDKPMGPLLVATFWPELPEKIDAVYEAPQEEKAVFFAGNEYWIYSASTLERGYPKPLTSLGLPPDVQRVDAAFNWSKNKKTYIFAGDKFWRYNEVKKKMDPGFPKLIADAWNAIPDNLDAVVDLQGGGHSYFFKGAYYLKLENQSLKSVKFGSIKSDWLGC

[8] = inhibitors of Bluetongue virus cytopathic effect, confirmation, arbovirus, BSR cells (AID 1250); type: functional;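 note: protection from viral cytopathic effect measured as cell viability by ATP luminescence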
[9] = molecular target: Muscarinic acetylcholine receptor M2 (Homo sapiens, UniProt P08172); assay: Discovery of novel allosteric modulators of the M1 muscarinic receptor: Agonist NMS competition at M2. [Related pubchem assays: 626 (Discovery of Novel Allosteric Modulators of the M1 Muscarinic Receptor: Agonist Primary Screen), 1488 (Discovery of novel allosteric modulators of the M1 muscarinic receptor: Agonist Confirmation Assay)]; type: functional
[10] = molecular target: Muscarinic acetylcholine receptor M3 (Homo sapiens, UniProt P20309); assay: Discovery of novel allosteric modulators of the M1 muscarinic receptor: Agonist NMS competition at M3. [Related pubchem assays: 1488 (Discovery of novel allosteric modulators of the M1 muscarinic receptor: Agonist Confirmation Assay), 626 (Discovery of Novel Allosteric Modulators of the M1 Muscarinic Receptor: Agonist Primary Screen)]; type: functional
Sequence of Muscarinic acetylcholine receptor M3 (P20309 whole entry): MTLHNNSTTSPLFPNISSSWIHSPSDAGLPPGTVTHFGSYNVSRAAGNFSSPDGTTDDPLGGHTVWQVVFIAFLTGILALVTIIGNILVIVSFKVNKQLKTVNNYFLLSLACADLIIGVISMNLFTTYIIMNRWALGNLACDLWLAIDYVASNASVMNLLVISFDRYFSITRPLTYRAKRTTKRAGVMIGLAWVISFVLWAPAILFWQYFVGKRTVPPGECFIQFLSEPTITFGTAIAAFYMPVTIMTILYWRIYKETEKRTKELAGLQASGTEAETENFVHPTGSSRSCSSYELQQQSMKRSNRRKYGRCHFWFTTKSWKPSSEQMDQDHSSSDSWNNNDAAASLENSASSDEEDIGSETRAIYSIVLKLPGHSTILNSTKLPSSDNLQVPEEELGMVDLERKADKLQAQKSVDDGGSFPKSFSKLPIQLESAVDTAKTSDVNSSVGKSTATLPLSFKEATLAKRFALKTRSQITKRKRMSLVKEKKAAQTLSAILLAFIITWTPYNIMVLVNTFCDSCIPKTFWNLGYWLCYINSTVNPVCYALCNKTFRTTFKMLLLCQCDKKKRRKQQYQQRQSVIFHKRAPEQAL

[11] = molecular target: Muscarinic acetylcholine receptor M5 (Homo sapiens, UniProt P08912); assay: Discovery of novel allosteric modulators of the M1 muscarinic receptor: Agonist NMS competition at M5. [Related pubchem assays: 1488 (Discovery of novel allosteric modulators of the M1 muscarinic receptor: Agonist Confirmation Assay), 626 (Discovery of Novel Allosteric Modulators of the M1 Muscarinic Receptor: Agonist Primary Screen)]; type: functional
Sequence of Muscarinic acetylcholine receptor M5 (P08912 whole entry): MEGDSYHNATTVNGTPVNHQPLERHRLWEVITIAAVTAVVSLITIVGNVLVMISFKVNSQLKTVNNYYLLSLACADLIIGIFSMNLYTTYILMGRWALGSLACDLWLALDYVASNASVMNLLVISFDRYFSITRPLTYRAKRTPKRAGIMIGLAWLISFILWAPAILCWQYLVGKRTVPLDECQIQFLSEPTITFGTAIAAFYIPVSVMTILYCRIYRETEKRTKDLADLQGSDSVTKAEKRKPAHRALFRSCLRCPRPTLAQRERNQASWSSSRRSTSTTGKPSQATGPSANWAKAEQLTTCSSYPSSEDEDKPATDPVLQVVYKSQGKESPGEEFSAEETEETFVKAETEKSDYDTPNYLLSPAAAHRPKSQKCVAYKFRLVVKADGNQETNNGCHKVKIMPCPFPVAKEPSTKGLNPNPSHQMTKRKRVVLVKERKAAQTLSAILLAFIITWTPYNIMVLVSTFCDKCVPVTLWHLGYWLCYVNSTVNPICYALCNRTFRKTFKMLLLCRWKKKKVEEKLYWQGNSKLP

[12] = molecular target: Muscarinic acetylcholine receptor M1 (Rattus norvegicus, UniProt P08482); assay: Discovery of novel allosteric modulators of the M1 muscarinic receptor: Agonist NMS binding at M1. [Related pubchem assays: 626 ]
Sequence of Muscarinic acetylcholine receptor M1 (P08482 whole entry): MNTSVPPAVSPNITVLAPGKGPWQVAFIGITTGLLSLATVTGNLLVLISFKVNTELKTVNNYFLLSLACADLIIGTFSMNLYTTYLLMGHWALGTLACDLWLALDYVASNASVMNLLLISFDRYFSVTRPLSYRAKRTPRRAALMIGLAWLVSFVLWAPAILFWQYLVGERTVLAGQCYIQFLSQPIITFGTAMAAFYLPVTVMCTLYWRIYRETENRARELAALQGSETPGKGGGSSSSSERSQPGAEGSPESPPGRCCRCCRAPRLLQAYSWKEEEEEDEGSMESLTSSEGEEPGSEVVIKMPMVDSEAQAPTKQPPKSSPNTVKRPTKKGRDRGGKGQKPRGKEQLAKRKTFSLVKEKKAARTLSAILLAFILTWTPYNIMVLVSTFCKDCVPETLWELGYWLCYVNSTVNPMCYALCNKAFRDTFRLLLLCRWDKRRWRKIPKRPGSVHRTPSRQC

[13] = molecular target: T3, Bcl-2-like protein 10 (Homo sapiens, UniProt Q9HD36); assay: Biochemical TR3 FP assay of Bcl-B inhibitor potency, EC50 (AID 1243); type: functional
T3 sequence (Q9HD36 whole entry): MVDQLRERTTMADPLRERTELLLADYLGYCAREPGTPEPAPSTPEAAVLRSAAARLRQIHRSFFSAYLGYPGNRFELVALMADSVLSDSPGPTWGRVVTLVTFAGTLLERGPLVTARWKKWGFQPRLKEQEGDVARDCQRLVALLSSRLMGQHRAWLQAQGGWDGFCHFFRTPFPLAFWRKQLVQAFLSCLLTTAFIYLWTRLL

[14] = molecular target: Lytic switch protein BZLF1 (Epstein-Barr virus (strain B95-8) (HHV-4) (Human herpesvirus 4), UniProt P03206); assay: EBV ZTA inhibitors, dose response, counter-screen for EBNA-1 inhibitor project, biochemical, fluorescence polarization, Epstein-Barr virus, 1536-well (AID 2377); parameters: species or system human gammaherpesvirus 4;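 note: fluorescence polarization of Cy5-labelled ZRE DNA probe bound by purified Zta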
Sequence of Lytic switch protein BZLF1 (P03206 whole entry): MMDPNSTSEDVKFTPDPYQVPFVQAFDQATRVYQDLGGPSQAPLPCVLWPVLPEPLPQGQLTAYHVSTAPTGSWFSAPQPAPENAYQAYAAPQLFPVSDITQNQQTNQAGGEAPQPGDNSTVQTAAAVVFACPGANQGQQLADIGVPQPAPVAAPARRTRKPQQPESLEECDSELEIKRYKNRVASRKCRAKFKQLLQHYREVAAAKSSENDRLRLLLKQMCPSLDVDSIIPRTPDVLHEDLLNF

[15] = molecular target: Epstein-Barr nuclear antigen 1 (Epstein-Barr virus (strain B95-8) (HHV-4) (Human herpesvirus 4), UniProt P03211); assay: EBNA-1 inhibitors, dose response, biochemical, fluorescence polarization, 1536-well (AID 2381); parameters: species or system human gammaherpesvirus 4;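 note: fluorescence polarization of a Cy5 DNA probe bound by EBNA-1 protein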
Sequence of Epstein-Barr nuclear antigen 1 (P03211 whole entry): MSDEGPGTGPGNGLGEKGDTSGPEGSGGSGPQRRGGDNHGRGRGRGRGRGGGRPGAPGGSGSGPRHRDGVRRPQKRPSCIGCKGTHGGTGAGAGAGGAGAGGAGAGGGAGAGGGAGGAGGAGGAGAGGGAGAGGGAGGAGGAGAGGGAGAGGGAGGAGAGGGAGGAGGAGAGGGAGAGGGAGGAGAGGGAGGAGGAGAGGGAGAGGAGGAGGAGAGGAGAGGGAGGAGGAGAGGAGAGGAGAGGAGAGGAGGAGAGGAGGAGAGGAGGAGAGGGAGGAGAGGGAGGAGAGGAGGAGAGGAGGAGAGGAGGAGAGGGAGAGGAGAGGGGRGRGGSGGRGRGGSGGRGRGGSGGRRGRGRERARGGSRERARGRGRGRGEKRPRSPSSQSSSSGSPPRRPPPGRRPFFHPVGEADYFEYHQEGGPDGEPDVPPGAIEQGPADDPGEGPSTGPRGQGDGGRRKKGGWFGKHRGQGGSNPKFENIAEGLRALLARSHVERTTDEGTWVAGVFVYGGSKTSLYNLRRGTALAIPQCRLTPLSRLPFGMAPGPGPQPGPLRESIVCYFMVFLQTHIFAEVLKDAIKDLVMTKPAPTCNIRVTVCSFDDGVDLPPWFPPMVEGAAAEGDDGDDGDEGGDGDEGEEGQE

[16] = molecular target: T4, Probable nicotinate-nucleotide adenylyltransferase (Staphylococcus aureus (strain N315), UniProt P65502); type: functional, Staphylococcus aureus subsp. aureus N315;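 for IC50 Mean: confirmatory dose-response retesting of NadD inhibitor hits first found in an ultra-high-throughput screen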
T4 sequence (P65502 whole entry): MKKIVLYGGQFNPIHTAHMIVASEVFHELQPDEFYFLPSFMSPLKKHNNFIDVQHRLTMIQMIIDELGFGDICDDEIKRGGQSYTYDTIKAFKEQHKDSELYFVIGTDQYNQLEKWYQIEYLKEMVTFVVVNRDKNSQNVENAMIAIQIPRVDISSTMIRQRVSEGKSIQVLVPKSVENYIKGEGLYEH

[17] = molecular target: T5, Leucine aminopeptidase (Plasmodium falciparum 3D7, UniProt Q8IL11); assay: P. falciparum M17LAP inhibitors, primary screen, biochemical, fluorogenic H-Leu-NHMec substrate, 1536-well (AID 1619); type: functional
T5 sequence (Q8IL11 whole entry): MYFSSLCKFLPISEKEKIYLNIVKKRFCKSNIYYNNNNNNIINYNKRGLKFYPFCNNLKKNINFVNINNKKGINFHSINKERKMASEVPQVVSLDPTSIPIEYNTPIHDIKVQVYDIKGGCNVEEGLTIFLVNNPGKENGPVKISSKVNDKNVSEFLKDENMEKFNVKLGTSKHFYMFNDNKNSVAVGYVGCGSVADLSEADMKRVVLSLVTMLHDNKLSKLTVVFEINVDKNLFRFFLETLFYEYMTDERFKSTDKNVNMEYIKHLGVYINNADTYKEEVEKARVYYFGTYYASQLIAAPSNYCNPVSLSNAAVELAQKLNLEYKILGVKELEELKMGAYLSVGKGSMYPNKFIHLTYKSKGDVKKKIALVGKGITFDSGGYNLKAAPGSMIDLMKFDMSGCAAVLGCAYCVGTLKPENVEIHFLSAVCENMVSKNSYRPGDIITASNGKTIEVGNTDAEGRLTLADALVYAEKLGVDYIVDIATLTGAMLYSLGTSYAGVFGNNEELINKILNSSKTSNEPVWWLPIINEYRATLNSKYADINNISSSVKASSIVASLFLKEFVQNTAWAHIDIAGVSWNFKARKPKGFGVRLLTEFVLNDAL

[18] = molecular target: T6, Beta-lactamase (Pseudomonas aeruginosa, UniProt Q79MP6); assay: IMP-1 metallo-beta-lactamase inhibitors, dose response, selectivity assay for VIM-2 inhibitor project, biochemical, epi-absorbance (AID 1920)
T6 sequence (Q79MP6 whole entry): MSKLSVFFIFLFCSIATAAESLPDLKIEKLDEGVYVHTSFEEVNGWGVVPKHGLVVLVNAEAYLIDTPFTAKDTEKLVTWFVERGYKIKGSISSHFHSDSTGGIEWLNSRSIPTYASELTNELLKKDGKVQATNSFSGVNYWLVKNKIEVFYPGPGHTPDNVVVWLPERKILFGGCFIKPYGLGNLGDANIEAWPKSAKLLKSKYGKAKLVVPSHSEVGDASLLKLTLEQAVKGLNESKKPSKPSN

[19] = molecular target: T7, Beta Lactamase (Pseudomonas aeruginosa, UniProt Q932Y6); assay: VIM-2 metallo-beta-lactamase inhibitor potency, dose response, biochemical, epi-absorbance readout, selective inhibitors (AID 1919)
T7 sequence (Q932Y6 whole entry): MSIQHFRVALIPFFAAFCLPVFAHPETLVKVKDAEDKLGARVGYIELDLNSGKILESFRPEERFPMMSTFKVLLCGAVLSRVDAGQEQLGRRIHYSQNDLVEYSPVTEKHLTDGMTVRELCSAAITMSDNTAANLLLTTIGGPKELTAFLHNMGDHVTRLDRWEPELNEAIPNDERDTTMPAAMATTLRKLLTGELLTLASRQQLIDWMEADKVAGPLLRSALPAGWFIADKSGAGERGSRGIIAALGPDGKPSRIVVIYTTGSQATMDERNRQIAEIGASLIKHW

[20] = molecular target: T6, Beta-lactamase; assay: […] counterscreen for selective VIM-2 inhibitors: dose response biochemical high throughput screening assay to identify inhibitors of IMP-1 metallo-beta-lactamase.
[21] = molecular target: Beta-lactamase (Salmonella choleraesuis (strain SC-B67), UniProt Q5J463); assay: Epi-absorbance-based counterscreen for selective VIM-2 inhibitors: dose response biochemical high throughput screening assay to identify inhibitors of TEM-1 serine-beta-lactamase.
Sequence of Beta-lactamase (Salmonella choleraesuis (strain SC-B67), UniProt Q5J463) (Q5J463 whole entry): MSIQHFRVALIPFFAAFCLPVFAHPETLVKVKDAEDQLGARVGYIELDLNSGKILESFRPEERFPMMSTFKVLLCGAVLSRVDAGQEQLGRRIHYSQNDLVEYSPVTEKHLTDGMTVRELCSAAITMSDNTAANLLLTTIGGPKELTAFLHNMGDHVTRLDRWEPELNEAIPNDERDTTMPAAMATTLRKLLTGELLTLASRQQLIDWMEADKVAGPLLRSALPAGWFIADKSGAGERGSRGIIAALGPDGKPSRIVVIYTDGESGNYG

[22] = molecular target: T8, Calpain-2 catalytic subunit (Sus scrofa, UniProt P43367); assay: pig calpain II inhibitor potency, dose response, biochemical, fluorogenic peptide substrate (AID 1420); type: functional
T8 sequence (P43367 whole entry): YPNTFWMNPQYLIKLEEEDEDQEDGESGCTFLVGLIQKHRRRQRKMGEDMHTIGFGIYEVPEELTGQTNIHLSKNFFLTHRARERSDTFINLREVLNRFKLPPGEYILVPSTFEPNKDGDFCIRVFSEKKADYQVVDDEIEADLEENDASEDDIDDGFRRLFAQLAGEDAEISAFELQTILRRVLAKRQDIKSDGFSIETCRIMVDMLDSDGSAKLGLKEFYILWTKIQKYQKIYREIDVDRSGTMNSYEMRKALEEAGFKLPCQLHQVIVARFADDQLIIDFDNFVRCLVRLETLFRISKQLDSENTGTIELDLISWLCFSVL

[23] = molecular target: T4, Probable nicotinate-nucleotide adenylyltransferase; type: functional, Staphylococcus aureus subsp. aureus N315; settings: read-out: IC50_Mean
[24] = HIV-1 Env-mediated cell fusion inhibitors, dose response, CCR5-tropic Env (AID 2279); type: functional
[25] = molecular target: T7, Beta Lactamase; assay: VIM-2 inhibitor FRET-based artefact check, dose response, artefact control for selective VIM-2 inhibitor project, biochemical, FRET readout, CCF2 substrate (AID 1926)

Structure (SMILES): Cc1ccc(-n2cccc2/C=C2/C(=N)N3C(=NC2=O)SN=C3S(C)(=O)=O)cc1Cl
- IC50 [1]: 15 µM (active)
- IC50 [2]: 7.72 µM (active)
- AC50 [3]: 8.75 µM (active)
- IC50 [4]: 13.4 µM (active)
- IC50 [5]: 1.86 µM (active)
- IC50 [6]: 21.1 µM (active)
- IC50 [7]: > 100 µM (inactive)
- IC50 [8]: 28.9 µM (active)

Structure (SMILES): CCOC(=O)N1CCC(NCCNC(=O)c2cccs2)CC1
- EC50 [9]: 48.9 µM (inconclusive)
- EC50 [10]: 77 µM (inconclusive)
- EC50 [11]: 88.4 µM (inconclusive)
- EC50 [12]: 14.4 µM (inconclusive)

Structure (SMILES): O=C1NN(c2ccc(F)c(Cl)c2)C(=O)/C1=C\c1ccco1
- EC50 [13]: 33.4 µM (active)

Structure (SMILES): O=C(CSc1nc2ccc(NC(=O)CSc3nnnn3-c3ccccc3)cc2s1)Nc1ccccc1
- IC50 [14]: > 111 µM (not active)
- IC50 [15]: 12 µM (not active)

Structure (SMILES): O=C(O)c1cccc(NC(=S)N/N=C/c2ccccc2OCc2cccc(Br)c2)c1
- IC50 [16]: 5.97 µM (active)
- IC50 [17]: 15.8 µM (active)
- IC50 [18]: > 59.6 µM (inactive)
- IC50 [19]: 9.15 µM (active)
- IC50 [20]: > 59.6 µM (inactive)
- IC50 [21]: > 59.6 µM (inactive)
- IC50 [22]: > 50 µM (not active)
- IC50 [23]: 15.8 µM (active)
- IC50 [24]: 44.4 µM (active)
- IC50 [25]: 1.16 µM (active)
